Legend:
Format in all cases: in vivo
Parameters in all cases: key: 5=total damage to plant; 0=no damage to plant
[1] = test system: Alopecurus myosuroides; assay: Pre-emergence herbicidal activity, ALOMY; settings: 1000 g/Ha, sprayed pre-emergence, evaluated after 13 days, scale 0-5
Procedure: (§1) Seeds of a variety of test species were sown in standard soil in pots. After cultivation for one day (pre-emergence) under controlled conditions in a glasshouse (at 24/16° C., day/night; 14 hours light; 65% humidity), the plants were sprayed with an aqueous spray solution derived from the formulation of the technical active ingredient in acetone/water (50:50) solution containing 0.5% Tween 20 (polyoxyethelyene sorbitan monolaurate, CAS RN 9005-64-5). The test plants were then grown in a glasshouse under controlled conditions (at 24/16° C., day/night; 14 hours light; 65% humidity) and watered twice daily. After 13 days, the test was evaluated (5=total damage to plant; 0=no damage to plant).

[2] = test system: Zea mays; assay: Post-emergence herbicidal activity, ZEAMX; settings: 1000 g/Ha, sprayed post-emergence (8 days cultivation), evaluated after 13 days, scale 0-5
Procedure: (§2) Seeds of a variety of test species were sown in standard soil in pots. After 8 days cultivation (post-emergence) under controlled conditions in a glasshouse (at 24/16° C., day/night; 14 hours light; 65% humidity), the plants were sprayed with an aqueous spray solution derived from the formulation of the technical active ingredient in acetone/water (50:50) solution containing 0.5% Tween 20 (polyoxyethelyene sorbitan monolaurate, CAS RN 9005-64-5). The test plants were then grown in a glasshouse under controlled conditions (at 24/16° C., day/night; 14 hours light; 65% humidity) and watered twice daily. After 13 days, the test was evaluated (5=total damage to plant; 0=no damage to plant).

[3] = test system: Amaranthus retroflexus; assay: Pre-emergence herbicidal activity, AMARE; settings: 1000 g/Ha, sprayed pre-emergence, evaluated after 13 days, scale 0-5
Procedure: as §1

[4] = test system: Echinochloa crus-galli; assay: Post-emergence herbicidal activity, ECHCG; settings: 1000 g/Ha, sprayed post-emergence (8 days cultivation), evaluated after 13 days, scale 0-5
Procedure: as §2

[5] = test system: Alopecurus myosuroides; assay: Post-emergence herbicidal activity, ALOMY; settings: 1000 g/Ha, sprayed post-emergence (8 days cultivation), evaluated after 13 days, scale 0-5
Procedure: as §2

[6] = test system: Zea mays; assay: Pre-emergence herbicidal activity, ZEAMX; settings: 1000 g/Ha, sprayed pre-emergence, evaluated after 13 days, scale 0-5
Procedure: as §1

[7] = test system: Abutilon theophrasti; assay: Post-emergence herbicidal activity, ABUTH; settings: 1000 g/Ha, sprayed post-emergence (8 days cultivation), evaluated after 13 days, scale 0-5
Procedure: as §2

[8] = test system: Amaranthus retroflexus; assay: Post-emergence herbicidal activity, AMARE; settings: 1000 g/Ha, sprayed post-emergence (8 days cultivation), evaluated after 13 days, scale 0-5
Procedure: as §2

[9] = test system: Abutilon theophrasti; assay: Pre-emergence herbicidal activity, ABUTH; settings: 1000 g/Ha, sprayed pre-emergence, evaluated after 13 days, scale 0-5
Procedure: as §1

[10] = test system: Setaria faberi; assay: Pre-emergence herbicidal activity, SETFA; settings: 1000 g/Ha, sprayed pre-emergence, evaluated after 13 days, scale 0-5
Procedure: as §1

[11] = test system: Setaria faberi; assay: Post-emergence herbicidal activity, SETFA; settings: 1000 g/Ha, sprayed post-emergence (8 days cultivation), evaluated after 13 days, scale 0-5
Procedure: as §2

[12] = test system: Echinochloa crus-galli; assay: Pre-emergence herbicidal activity, ECHCG; settings: 1000 g/Ha, sprayed pre-emergence, evaluated after 13 days, scale 0-5
Procedure: as §1

| SMILES | ALOMY damage score, application pre-emergence [1] | ZEAMX damage score, application post-emergence [2] | AMARE damage score, application pre-emergence [3] | ECHCG damage score, application post-emergence [4] | ALOMY damage score, application post-emergence [5] | ZEAMX damage score, application pre-emergence [6] | ABUTH damage score, application post-emergence [7] | AMARE damage score, application post-emergence [8] | ABUTH damage score, application pre-emergence [9] | SETFA damage score, application pre-emergence [10] | SETFA damage score, application post-emergence [11] | ECHCG damage score, application pre-emergence [12] |
| --- | --- | --- | --- | --- | --- | --- | --- | --- | --- | --- | --- | --- |
| C=CCC1C(O)N(c2cc(C(C)(C)C)ncn2)C(=O)N1C (single isomer, unassigned) [Example A33] | 4 | 3 | 5 | 5 | 5 | 3 | 5 | 5 | 5 | 4 | 5 | 5 |
| CN1CC(O)N(c2cc(C(C)(C)C)ncn2)C1=O (stereo not shown) [Example A1, 3-(6-tert-butylpyrimidin-4-yl)-4-hydroxy-1-methyl-imidazolidin-2-one] | 4 | 5 | 5 | 5 | 5 | 4 | 5 | 5 | 5 | 5 | 5 | 5 |
| CN1CC(O)N(c2cc(C(C)(C)C#N)ncn2)C1=O (stereo not shown) [Example A2] | 4 | 3 | 5 | 5 | 5 | 3 | 5 | 5 | 4 | 5 | 5 | 4 |
| CC1C(O)N(c2cc(C(C)(C)C)ncn2)C(=O)N1C (stereo not shown) [Example A3] | 4 | 3 | 5 | 5 | 5 | 2 | 5 | 5 | 5 | 5 | 5 | 4 |
| CN1C(=O)N(c2cc(C(C)(C)C)ncn2)C(O)C1O (stereo not shown) [Example A4, 1-(6-tert-butylpyrimidin-4-yl)-4,5-dihydroxy-3-methyl-imidazolidin-2-one] | 2 | 1 | 5 | 2 | 4 | 0 | 4 | 5 | 4 | 2 | 4 | 2 |
| CCOC1C(O)N(c2cc(C(C)(C)C)ncn2)C(=O)N1C (stereo not shown) [Example A5, 1-(6-tert-butylpyrimidin-4-yl)-4-ethoxy-5-hydroxy-3-methyl-imidazolidin-2-one] | 4 | 4 | 5 | 5 | 5 | 2 | 5 | 5 | 5 | 5 | 5 | 5 |
| CON1C(=O)N(c2cc(C(C)(C)C)ncn2)C(O)C1C (stereo not shown) [Example A6, 1-(6-tert-butylpyrimidin-4-yl)-5-hydroxy-3-methoxy-4-methyl-imidazolidin-2-one] | 4 | 5 | 5 | 5 | 5 | – | 5 | 5 | – | 5 | 5 | 5 |
| COC1C(O)N(c2cc(C(C)(C)C)ncn2)C(=O)N1OC (stereo not shown) [Example A7] | 4 | 4 | 5 | 4 | 5 | 4 | 5 | 5 | 5 | 4 | 5 | 4 |
| CCOC1C(O)N(c2cc(C(C)(C)C)ncn2)C(=O)N1OC (stereo not shown) [Example A8] | 5 | 4 | 5 | 5 | 5 | 1 | 5 | 5 | 5 | 5 | 5 | 5 |
| CCO[C@@H]1C(O)N(c2cc(C(C)(C)F)ncn2)C(=O)N1C (stereo partly shown) [Example A38] | – | 5 | 5 | 5 | – | 2 | 5 | 5 | 5 | 5 | 5 | 5 |
| CN1CC(O)N(c2cc(C(F)(F)Cl)ncn2)C1=O (stereo not shown) [Example A39] | – | 5 | 5 | 5 | – | 2 | 5 | 5 | 5 | 5 | 5 | 5 |
| CN1CC(O)N(c2cc(C(C)(C)CCl)ncn2)C1=O (stereo not shown) [Example A40] | – | 5 | 5 | 5 | – | 2 | 5 | 5 | 5 | 5 | 5 | 5 |
